Laboratory results: patent US5955462A, “Anti-neurogenic inflammatory compounds and compositions and methods of use thereof” (Harbor Branch Oceanographic Institution, Inc., priority 1997, dated 1999)
Where “and” joins values, the source holds several entries; their conditions need not be identical. Equal entries are not always repeated.

Tests used:
[1] = system: mouse ear; experiment: Inhibition of resiniferatoxin (RTX)-induced edema in a mouse ear model; assay type: in vivo; details: for ED50 for inhibition of RTX-induced edema: dose response curve
Procedure: A. Inhibition of Capsaicin-Induced Inflammation (Edema) of the Mouse Ear. Induction of mouse ear edema was based on known methods. Inoue, H., Nagata, N., and Koshihara, Y. (1993). Profile of capsaicin-induced mouse ear oedema as neurogenic inflammatory model: comparison with arachidonic acid-induced ear oedema. Br. J. Pharm 110:1614-20. […] CAP alone (250 μg/ear) or in combination with various dilutions of test compound are applied to both sides of the left ears (5 mice per treatment group) and acetone is applied to all right ears. After a 30 minute incubation, the mice are sacrificed, the ears removed, and bores taken and weighed. Edema is measured by subtracting the weight of the right ear (acetone control) from the weight of the left ear (treated).
B. Inhibition of Resiniferatoxin (RTX)-induced edema in a mouse ear model. Topsentin was also tested for its inhibitory activity against inflammation induced by the neurogenic inflammation producing compound, resiniferatoxin (RTX). Using a mouse ear model, the experimental procedure is substantially the same as that described for the capsaicin-induced inflammation assay (see section A of this Example, above).

[2] = system: mouse ear; experiment: Inhibition of capsaicin-induced inflammation (edema) of the mouse ear; assay type: in vivo; details: for potency in inhibiting neurogenic inflammation compared with capsazepine: capsaicin-induced edema in mouse ears
Description: The assay employing mice (e.g., administration to the ear of the mouse) is routinely used by those skilled in the art and is accepted as indicative of anti-inflammatory activity in humans. This assay is described below.
A. Inhibition of Capsaicin-Induced Inflammation (Edema) of the Mouse Ear. Induction of mouse ear edema was based on known methods. Inoue, H., Nagata, N., and Koshihara, Y. (1993). Profile of capsaicin-induced mouse ear oedema as neurogenic inflammatory model: comparison with arachidonic acid-induced ear oedema. Br. J. Pharm 110:1614-20. Compounds to be tested for anti-neurogenic inflammatory activity are topically applied in acetone to the ears of mice in a solution that includes the edema-causing irritant, capsaicin (CAP). CAP alone (250 μg/ear) or in combination with various dilutions of test compound are applied to both sides of the left ears (5 mice per treatment group) and acetone is applied to all right ears. After a 30 minute incubation, the mice are sacrificed, the ears removed, and bores taken and weighed. Edema is measured by subtracting the weight of the right ear (acetone control) from the weight of the left ear (treated). Results are recorded as % decrease (inhibition) or % increase (potentiation) in edema relative to the control group edema.

[3] = Mus musculus, topical, 3.12 μg/ear, read-out: % Inh. of Edema
[4] = Mus musculus, topical, 6.25 μg/ear, read-out: % Inh. of Edema
[5] = Mus musculus, topical, 12.5 μg/ear, read-out: % Inh. of Edema
[6] = Mus musculus, topical, 25 μg/ear, read-out: % Inh. of Edema
[7] = Mus musculus, topical, 50 μg/ear, read-out: % Inh. of Edema
[8] = 3.12 μg/ear, listed as hamacanthin b
[9] = 50 μg/ear, listed as hamacanthin b

NCC(c1c[nH]c2cc(Br)ccc12)c1c[nH]c2cc(Br)ccc12 [2,2-bis(6-bromoindol-3-yl)ethyl amine]
Mean difference ([1]; 3.12 μg/ear): 11.9 mg | Mean difference ([1]; 6.25 μg/ear): 13.2 mg | Mean difference ([1]; 12.5 μg/ear): 5.8 mg | Mean difference ([1]; 25 μg/ear): 2.1 mg | inhibition of RTX-induced edema in certain animals ([1]; 50 μg on the ear): ~100% | Mean difference ([1]; 50 μg/ear): 0.1 mg | inhibition in vivo at 3.12 µg/ear [1, 3]: 6.8% | inhibition in vivo at 6.25 µg/ear [1, 4]: 18% | inhibition in vivo at 12.5 µg/ear [1, 5]: 86.8% | inhibition in vivo at 25 µg/ear [1, 6]: 81.5% | inhibition in vivo at 50 µg/ear [1, 7]: ~99% | ED50 for inhibition of RTX-induced edema [1]: about 18.1 μg/ear

O=C(C1=NC(c2c[nH]c3cc(Br)ccc23)CN1)c1c[nH]c2ccccc12 (centres unmarked) [4,5-dihydro-6"-deoxybromotopsentin]
Mean difference ([1]; 50 μg/ear): 3.3 mg | inhibition in vivo at 50 µg/ear [1, 7]: 87.1%

O=C(c1nc(-c2c[nH]c3cc(Br)ccc23)c[nH]1)c1c[nH]c2cc(O)ccc12 [Bromotopsentin]
% Inhibition of capsaicin-induced edema ([2]; 500 μg/ear): 79% | potency in inhibiting neurogenic inflammation compared with capsazepine [2]: greater potency in inhibiting neurogenic inflammation than capsazepine

Oc1cc2c(cc1O)CN(C(=S)NCCc1ccc(Cl)cc1)CCC2 [Capsazepine, reference compound]
% Inhibition of capsaicin-induced edema ([2]; 500 μg/ear): 33% | % Inhibition of capsaicin-induced edema ([2]; 1000 μg/ear): 52% | % Inhibition of capsaicin-induced edema ([2]; 1500 μg/ear): 76%

CC(c1c[nH]c(N)n1)c1ccc(O)c2[nH]cc(-c3cnc(-c4c[nH]c5cc(Br)ccc45)c(=O)[nH]3)c12 (centres unmarked) [Dragmacidin d, Dragmacidin-d]
Mean difference ([1]; 50 μg/ear): 1.4 mg | inhibition in vivo at 50 µg/ear [1, 7]: 89.6%

O=C1NC[C@H](c2c[nH]c3cc(Br)ccc23)N=C1c1c[nH]c2cc(Br)ccc12 [Hamacanthin B]
Mean difference ([1]; 3.12 μg/ear): 3.9 mg | % Inh. of Edema ([1]; 3.12 μg/ear, listed as Hamacanthin b): 68% | % Inh. of Edema [1, 8]: 68.8% | Difference (mg), left minus right ear, individual animal [1, 8]: 4.4 mg and 6.9 mg and 1.5 mg and 1.2 mg and 5.3 mg | % Inh. of Edema ([1]; 6.25 μg/ear): 46.0% | Difference (mg), left minus right ear, individual animal ([1]; 6.25 μg/ear): 6.9 mg and 7.4 mg and 7.0 mg and 8.4 mg and 5.4 mg | Mean difference ([1]; 6.25 μg/ear): 6.7 mg | % Inh. of Edema ([1]; 12.5 μg/ear): 86.8% | Difference (mg), left minus right ear, individual animal ([1]; 12.5 μg/ear): 4.6 mg and 4.1 mg and 6.1 mg and 8.3 mg and 1.4 mg | Mean difference ([1]; 12.5 μg/ear): 4.9 mg | % Inh. of Edema ([1]; 25 μg/ear): 81.6% | Difference (mg), left minus right ear, individual animal ([1]; 25 μg/ear): 2.3 mg and 4.2 mg and 2.0 mg and 1.0 mg and 1.9 mg | Mean difference ([1]; 25 μg/ear): 2.3 mg | inhibition of RTX-induced edema in certain animals ([1]; 50 μg on the ear): ~100% | Mean difference ([1]; 50 μg/ear): 0.4 mg | % Inh. of Edema ([1]; 50 μg/ear, listed as Hamacanthin b): about 97% | % Inh. of Edema [1, 9]: 96.9% | Difference (mg), left minus right ear, individual animal [1, 9]: 0.2 mg and 0.0 mg and 1.4 mg and 0.1 mg | ED50 for inhibition of RTX-induced edema [1]: about 1.5 μg/ear

Brc1ccc2c(-c3c[nH]c(-c4c[nH]c5cc(Br)ccc45)n3)c[nH]c2c1 [Nortopsentin A]
Mean difference ([1]; 50 μg/ear): -0.4 mg | inhibition in vivo at 50 µg/ear [1, 7]: 100%

Brc1ccc2c(-c3nc(-c4c[nH]c5ccccc45)c[nH]3)c[nH]c2c1 [Nortopsentin B]
Mean difference ([1]; 50 μg/ear): 0.9 mg | inhibition in vivo at 50 µg/ear [1, 7]: 91.2%

Brc1ccc2c(-c3c[nH]c(-c4c[nH]c5ccccc45)n3)c[nH]c2c1 [Nortopsentin C]
Mean difference ([1]; 3.12 μg/ear): 9.3 mg | Mean difference ([1]; 6.25 μg/ear): 5.4 mg | Mean difference ([1]; 12.5 μg/ear): 1.3 mg | Mean difference ([1]; 25 μg/ear): 1.0 mg | inhibition of RTX-induced edema in certain animals ([1]; 50 μg on the ear): ~100% | Mean difference ([1]; 50 μg/ear): 0.2 mg | inhibition in vivo at 3.12 µg/ear [1, 3]: 5.9% | inhibition in vivo at 6.25 µg/ear [1, 4]: 45% | inhibition in vivo at 12.5 µg/ear [1, 5]: 86.8% | inhibition in vivo at 25 µg/ear [1, 6]: 90.2% | inhibition in vivo at 50 µg/ear [1, 7]: ~98% | ED50 for inhibition of RTX-induced edema [1]: about 8 μg/ear

O=C(c1nc(-c2c[nH]c3ccccc23)c[nH]1)c1c[nH]c2cc(O)ccc12 [Topsentin]
% Inhibition of capsaicin-induced edema ([2]; 100 μg/ear): 28% | Inflammation (mg) ± SEM ([2]; 100 μg/ear topical, capsaicin 250 μg/ear): 4.8 ± 1.0 mg | % Inhibition of capsaicin-induced edema ([2]; 100 μg/ear, listed as topsentin): more than 25% | % Inhibition of capsaicin-induced edema ([2]; 250 μg/ear): 66% | % Inhibition of capsaicin-induced edema ([2]; 500 μg/ear): 74% | % Inhibition of capsaicin-induced edema ([2]; 1000 μg/ear): 90% | potency in inhibiting neurogenic inflammation compared with capsazepine [2]: greater potency in inhibiting neurogenic inflammation than capsazepine | ED50 in inhibition of capsaicin-induced inflammation ([2]; dose-response curve, FIG. 1): about 200 μg/ear | percent inhibition of edema (up to) ([2]; final concentration of about 1000 μM): approximately 90% | Mean difference ([1]; 5 μg/ear): 12.3 mg | Mean difference ([1]; 10 μg/ear): 9.6 mg | Mean difference ([1]; 25 μg/ear): 8.3 mg | Mean difference ([1]; 50 μg/ear): 2.6 mg | inhibition of RTX-induced edema in certain animals ([1]; 100 μg on the ear): about 100% | Mean difference ([1]; 100 μg/ear): 1.3 mg | inhibition in vivo at 5 µg/ear ([1]; Mus musculus, topical, 5 μg/ear, read-out: % Inh. of Edema): ~12% | inhibition in vivo at 10 µg/ear ([1]; Mus musculus, topical, 10 μg/ear, read-out: % Inh. of Edema): 31% | inhibition in vivo at 25 µg/ear [1, 6]: 41% | inhibition in vivo at 50 µg/ear [1, 7]: 82% | inhibition in vivo at 100 µg/ear ([1]; Mus musculus, topical, 100 μg/ear, read-out: % Inh. of Edema): ~91% | ED50 for inhibition of RTX-induced edema [1]: about 20 μg/ear

CS(=O)(=O)Oc1ccc2c(C(=O)c3nc(-c4c[nH]c5cc(Br)ccc45)c[nH]3)c[nH]c2c1 [o-mesylbromotopsentin, bromotopsentin-O-mesylate]
Mean difference ([1]; 3.12 μg/ear): 9.2 mg | Mean difference ([1]; 6.25 μg/ear): 7.2 mg | Mean difference ([1]; 12.5 μg/ear): 8.3 mg | Mean difference ([1]; 25 μg/ear): 2.3 mg | inhibition of RTX-induced edema in certain animals ([1]; 50 μg on the ear): 70% | Mean difference ([1]; 50 μg/ear): 3 mg | inhibition in vivo at 3.12 µg/ear [1, 3]: 8.9% | inhibition in vivo at 6.25 µg/ear [1, 4]: 28% | inhibition in vivo at 12.5 µg/ear [1, 5]: 86.8% | inhibition in vivo at 25 µg/ear [1, 6]: 77.6% | inhibition in vivo at 50 µg/ear [1, 7]: 70.3% | ED50 for inhibition of RTX-induced edema [1]: about 17 μg/ear
